# Reference: PubChem BioAssay (NCI)
#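 Values below derive from 48-hour exposures of cells grown in 96-well plates, with endpoints linearly interpolated between the two concentrations bracketing the appropriate inhibition level. GI50 is the concentration that inhibits growth by half. TGI marks complete inhibition of growth.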
# Tests used:
# Experiment in all cases: DTP human tumour cell line panel, 48 h
# 786-0 renal = system: 786-0 renal
# A498 renal = system: A498 renal
# A549 NSCLC = system: A549 NSCLC
# ACHN renal = system: ACHN renal
# BT-549 breast = system: BT-549 breast
# CAKI-1 renal = system: CAKI-1 renal
# CCRF-CEM leukemia = system: CCRF-CEM leukemia
# COLO 205 colon = system: COLO 205 colon
# DU-145 prostate = system: DU-145 prostate
# EKVX NSCLC = system: EKVX NSCLC
# HCC-2998 colon = system: HCC-2998 colon
# HCT-116 colon = system: HCT-116 colon
# HCT-15 colon = system: HCT-15 colon
# HL-60(TB) leukemia = system: HL-60(TB) leukemia
# HOP-62 NSCLC = system: HOP-62 NSCLC
# HOP-92 NSCLC = system: HOP-92 NSCLC
# HS 578T breast = system: HS 578T breast
# HT29 colon = system: HT29 colon
# IGROV1 ovarian = system: IGROV1 ovarian
# K-562 leukemia = system: K-562 leukemia
# KM12 colon = system: KM12 colon
# LOX IMVI melanoma = system: LOX IMVI melanoma
# M14 melanoma = system: M14 melanoma
# MALME-3M melanoma = system: MALME-3M melanoma
# MCF7 breast = system: MCF7 breast
# MDA-MB-231 breast = system: MDA-MB-231 breast
# MDA-MB-435 = system: MDA-MB-435
# MOLT-4 leukemia = system: MOLT-4 leukemia
# NCI-H226 lung = system: NCI-H226 lung
# NCI-H23 lung = system: NCI-H23 lung
# NCI-H460 lung = system: NCI-H460 lung
# NCI-H522 lung = system: NCI-H522 lung
# NCI/ADR-RES ovarian = system: NCI/ADR-RES ovarian
# OVCAR-3 ovarian = system: OVCAR-3 ovarian
# OVCAR-4 ovarian = system: OVCAR-4 ovarian
# OVCAR-5 ovarian = system: OVCAR-5 ovarian
# OVCAR-8 ovarian = system: OVCAR-8 ovarian
# PC-3 prostate = system: PC-3 prostate
# RPMI-8226 leukemia = system: RPMI-8226 leukemia
# RXF 393 renal = system: RXF 393 renal
# SF-268 CNS = system: SF-268 CNS
# SF-295 CNS = system: SF-295 CNS
# SF-539 CNS = system: SF-539 CNS
# SK-MEL-2 melanoma = system: SK-MEL-2 melanoma
# SK-MEL-28 melanoma = system: SK-MEL-28 melanoma
# SK-MEL-5 melanoma = system: SK-MEL-5 melanoma
# SK-OV-3 ovarian = system: SK-OV-3 ovarian
# SN12C renal = system: SN12C renal
# SNB-19 CNS = system: SNB-19 CNS
# SNB-75 CNS = system: SNB-75 CNS
# SR leukemia = system: SR leukemia
# SW-620 colon = system: SW-620 colon
# T-47D breast = system: T-47D breast
# TK-10 renal = system: TK-10 renal
# U251 CNS = system: U251 CNS
# UACC-257 melanoma = system: UACC-257 melanoma
# UACC-62 melanoma = system: UACC-62 melanoma
# UO-31 renal = system: UO-31 renal
# MDA-N = system: MDA-N
smiles,measurement,setting,value
O=C(O)c1cc(N/C=C2\C(=O)c3ccccc3OC2O)ccc1O (stereo unspecified),GI50,786-0 renal,30.8 µg/mL
same,TGI,786-0 renal,57.7 µg/mL
same,GI50,A498 renal,35.8 µg/mL
same,TGI,A498 renal,77.5 µg/mL
same,GI50,A549 NSCLC,53.7 µg/mL
same,TGI,A549 NSCLC,> 150 µg/mL
same,GI50,ACHN renal,28.3 µg/mL
same,TGI,ACHN renal,82.7 µg/mL
same,GI50,BT-549 breast,15 µg/mL
same,TGI,BT-549 breast,71.8 µg/mL
same,GI50,CAKI-1 renal,13 µg/mL
same,TGI,CAKI-1 renal,42 µg/mL
same,GI50,CCRF-CEM leukemia,9.75 µg/mL
same,TGI,CCRF-CEM leukemia,44.2 µg/mL
same,GI50,COLO 205 colon,30.6 µg/mL
same,TGI,COLO 205 colon,77.9 µg/mL
same,GI50,DU-145 prostate,18.9 µg/mL
same,TGI,DU-145 prostate,59 µg/mL
same,GI50,EKVX NSCLC,24.3 µg/mL
same,TGI,EKVX NSCLC,78.5 µg/mL
same,GI50,HCC-2998 colon,27.4 µg/mL
same,TGI,HCC-2998 colon,50.2 µg/mL
same,GI50,HCT-116 colon,19.8 µg/mL
same,TGI,HCT-116 colon,51 µg/mL
same,GI50,HCT-15 colon,15.7 µg/mL
same,TGI,HCT-15 colon,44.7 µg/mL
same,GI50,HL-60(TB) leukemia,9.18 µg/mL
same,TGI,HL-60(TB) leukemia,> 150 µg/mL
same,GI50,HOP-62 NSCLC,29.8 µg/mL
same,TGI,HOP-62 NSCLC,75.3 µg/mL
same,GI50,HOP-92 NSCLC,6.73 µg/mL
same,TGI,HOP-92 NSCLC,125 µg/mL
same,GI50,HS 578T breast,19.6 µg/mL
same,TGI,HS 578T breast,140 µg/mL
same,GI50,HT29 colon,28.8 µg/mL
same,TGI,HT29 colon,71.6 µg/mL
same,GI50,IGROV1 ovarian,20.6 µg/mL
same,TGI,IGROV1 ovarian,61.8 µg/mL
same,GI50,K-562 leukemia,13.3 µg/mL
same,TGI,K-562 leukemia,72.1 µg/mL
same,GI50,KM12 colon,25.7 µg/mL
same,TGI,KM12 colon,51.6 µg/mL
same,GI50,LOX IMVI melanoma,24.7 µg/mL
same,TGI,LOX IMVI melanoma,80.9 µg/mL
same,GI50,M14 melanoma,25.4 µg/mL
same,TGI,M14 melanoma,66.1 µg/mL
same,GI50,MALME-3M melanoma,7.59 µg/mL
same,TGI,MALME-3M melanoma,40.8 µg/mL
same,GI50,MCF7 breast,24.1 µg/mL
same,TGI,MCF7 breast,115 µg/mL
same,GI50,MDA-MB-231 breast,24.5 µg/mL
same,TGI,MDA-MB-231 breast,78.9 µg/mL
same,GI50,MDA-MB-435,23.3 µg/mL
same,TGI,MDA-MB-435,79.2 µg/mL
same,GI50,MOLT-4 leukemia,15.3 µg/mL
same,TGI,MOLT-4 leukemia,72 µg/mL
same,GI50,NCI-H226 lung,37.7 µg/mL
same,TGI,NCI-H226 lung,98.1 µg/mL
same,GI50,NCI-H23 lung,20.4 µg/mL
same,TGI,NCI-H23 lung,59.6 µg/mL
same,GI50,NCI-H460 lung,34 µg/mL
same,TGI,NCI-H460 lung,81.3 µg/mL
same,GI50,NCI-H522 lung,34.3 µg/mL
same,TGI,NCI-H522 lung,72.7 µg/mL
same,GI50,NCI/ADR-RES ovarian,21.1 µg/mL
same,TGI,NCI/ADR-RES ovarian,82.8 µg/mL
same,GI50,OVCAR-3 ovarian,14.6 µg/mL
same,TGI,OVCAR-3 ovarian,47.2 µg/mL
same,GI50,OVCAR-4 ovarian,29 µg/mL
same,TGI,OVCAR-4 ovarian,> 150 µg/mL
same,GI50,OVCAR-5 ovarian,29.3 µg/mL
same,TGI,OVCAR-5 ovarian,74.9 µg/mL
same,GI50,OVCAR-8 ovarian,27.4 µg/mL
same,TGI,OVCAR-8 ovarian,> 150 µg/mL
same,GI50,PC-3 prostate,29.4 µg/mL
same,TGI,PC-3 prostate,120 µg/mL
same,GI50,RPMI-8226 leukemia,2.24 µg/mL
same,TGI,RPMI-8226 leukemia,7.82 µg/mL
same,GI50,RXF 393 renal,18.5 µg/mL
same,TGI,RXF 393 renal,40.1 µg/mL
same,GI50,SF-268 CNS,24 µg/mL
same,TGI,SF-268 CNS,108 µg/mL
same,GI50,SF-295 CNS,18.1 µg/mL
same,TGI,SF-295 CNS,52.8 µg/mL
same,GI50,SF-539 CNS,16.7 µg/mL
same,TGI,SF-539 CNS,43.9 µg/mL
same,GI50,SK-MEL-2 melanoma,30.6 µg/mL
same,TGI,SK-MEL-2 melanoma,68.7 µg/mL
same,GI50,SK-MEL-28 melanoma,31.8 µg/mL
same,TGI,SK-MEL-28 melanoma,113 µg/mL
same,GI50,SK-MEL-5 melanoma,18 µg/mL
same,TGI,SK-MEL-5 melanoma,39.3 µg/mL
same,GI50,SK-OV-3 ovarian,29.3 µg/mL
same,TGI,SK-OV-3 ovarian,75.1 µg/mL
same,GI50,SN12C renal,25.5 µg/mL
same,TGI,SN12C renal,97.3 µg/mL
same,GI50,SNB-19 CNS,19.9 µg/mL
same,TGI,SNB-19 CNS,67.5 µg/mL
same,GI50,SNB-75 CNS,25.2 µg/mL
same,TGI,SNB-75 CNS,129 µg/mL
same,GI50,SR leukemia,4.77 µg/mL
same,TGI,SR leukemia,36.9 µg/mL
same,GI50,SW-620 colon,23.4 µg/mL
same,TGI,SW-620 colon,54.2 µg/mL
same,GI50,T-47D breast,5.34 µg/mL
same,TGI,T-47D breast,46.2 µg/mL
same,GI50,TK-10 renal,39.2 µg/mL
same,TGI,TK-10 renal,118 µg/mL
same,GI50,U251 CNS,18 µg/mL
same,TGI,U251 CNS,43.6 µg/mL
same,GI50,UACC-257 melanoma,33.4 µg/mL
same,TGI,UACC-257 melanoma,93.7 µg/mL
same,GI50,UACC-62 melanoma,15.6 µg/mL
same,TGI,UACC-62 melanoma,62.8 µg/mL
same,GI50,UO-31 renal,10.1 µg/mL
same,TGI,UO-31 renal,46.2 µg/mL
CN(C)C1(C(=O)O)CC1,TGI,786-0 renal,> 100 µM
same,TGI,A498 renal,> 100 µM
same,TGI,A549 NSCLC,> 100 µM
same,TGI,ACHN renal,> 100 µM
same,TGI,CCRF-CEM leukemia,> 100 µM
same,TGI,DU-145 prostate,> 100 µM
same,TGI,EKVX NSCLC,> 100 µM
same,TGI,HCC-2998 colon,> 100 µM
same,TGI,HCT-116 colon,> 100 µM
same,TGI,HCT-15 colon,> 100 µM
same,TGI,HL-60(TB) leukemia,> 100 µM
same,TGI,HOP-62 NSCLC,> 100 µM
same,TGI,HOP-92 NSCLC,> 100 µM
same,TGI,HS 578T breast,> 100 µM
same,TGI,HT29 colon,> 100 µM
same,TGI,IGROV1 ovarian,> 100 µM
same,TGI,K-562 leukemia,> 100 µM
same,TGI,LOX IMVI melanoma,> 100 µM
same,TGI,M14 melanoma,> 100 µM
same,TGI,MALME-3M melanoma,> 100 µM
same,TGI,MCF7 breast,> 100 µM
same,TGI,MDA-MB-435,> 100 µM
same,TGI,MDA-N,> 100 µM
same,TGI,MOLT-4 leukemia,> 100 µM
same,TGI,NCI-H226 lung,> 100 µM
same,TGI,NCI-H23 lung,> 100 µM
same,TGI,NCI-H460 lung,> 100 µM
same,TGI,NCI-H522 lung,> 100 µM
same,TGI,NCI/ADR-RES ovarian,> 100 µM
same,TGI,OVCAR-3 ovarian,> 100 µM
same,TGI,OVCAR-4 ovarian,> 100 µM
same,TGI,OVCAR-5 ovarian,> 100 µM
same,TGI,OVCAR-8 ovarian,> 100 µM
same,TGI,PC-3 prostate,> 100 µM
same,TGI,RPMI-8226 leukemia,> 100 µM
same,TGI,RXF 393 renal,> 100 µM
same,TGI,SF-268 CNS,> 100 µM
same,TGI,SF-295 CNS,> 100 µM
same,TGI,SF-539 CNS,> 100 µM
same,TGI,SK-MEL-28 melanoma,> 100 µM
same,TGI,SK-MEL-5 melanoma,> 100 µM
same,TGI,SN12C renal,> 100 µM
same,TGI,SNB-19 CNS,> 100 µM
same,TGI,SNB-75 CNS,> 100 µM
same,TGI,SR leukemia,> 100 µM
same,TGI,SW-620 colon,> 100 µM
same,TGI,T-47D breast,> 100 µM
same,TGI,TK-10 renal,> 100 µM
same,TGI,U251 CNS,> 100 µM
same,TGI,UACC-257 melanoma,> 100 µM
